Measured values taken from patent US7045528B2, “Benzofused heterozryl amide derivatives of thienopyridines useful as therapeutic agents, pharmaceutical compositions including the same, and methods for their use” (Agouron Pharmaceuticals, Inc., priority 2002, dated 2006).
Where two headings read alike, the source gives them in different places.

How the values were obtained:
[1] = test system: human umbilical vein endothelial cells (HUVEC); assay: HUVEC+VEGF proliferation assay; assay type: cell-based; conditions: Homo sapiens, HUVEC; VEGF 6 ng/mL, 72 h, MTT
Procedure, shortened: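 Exponentially growing passage 3–4 HUVEC were starved 24 h in F12K + 1% FBS, given compound (0.1% final DMSO) 1 h before 6 ng/mL final VEGF, then cultured 72 h. Proliferation was read as MTT dye reduction (4 h exposure), absorbance at 595 nm.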

KDR (VEGFR2) = target: T1, KDR (VEGFR2) (Homo sapiens, UniProt P35968); assay: KDR (VEGFR2) phosphorylation in PAE-KDR cells assay; assay type: cell-based; conditions: PAE cells overexpressing human KDR, VEGF stimulated; read-out: PAE KDR autophos IC50 (nM) AVG
T1 construct: expressed in transfected cells; host or cells: porcine aorta endothelial (PAE)-KDR cells
T1 sequence (P35968 20-1356): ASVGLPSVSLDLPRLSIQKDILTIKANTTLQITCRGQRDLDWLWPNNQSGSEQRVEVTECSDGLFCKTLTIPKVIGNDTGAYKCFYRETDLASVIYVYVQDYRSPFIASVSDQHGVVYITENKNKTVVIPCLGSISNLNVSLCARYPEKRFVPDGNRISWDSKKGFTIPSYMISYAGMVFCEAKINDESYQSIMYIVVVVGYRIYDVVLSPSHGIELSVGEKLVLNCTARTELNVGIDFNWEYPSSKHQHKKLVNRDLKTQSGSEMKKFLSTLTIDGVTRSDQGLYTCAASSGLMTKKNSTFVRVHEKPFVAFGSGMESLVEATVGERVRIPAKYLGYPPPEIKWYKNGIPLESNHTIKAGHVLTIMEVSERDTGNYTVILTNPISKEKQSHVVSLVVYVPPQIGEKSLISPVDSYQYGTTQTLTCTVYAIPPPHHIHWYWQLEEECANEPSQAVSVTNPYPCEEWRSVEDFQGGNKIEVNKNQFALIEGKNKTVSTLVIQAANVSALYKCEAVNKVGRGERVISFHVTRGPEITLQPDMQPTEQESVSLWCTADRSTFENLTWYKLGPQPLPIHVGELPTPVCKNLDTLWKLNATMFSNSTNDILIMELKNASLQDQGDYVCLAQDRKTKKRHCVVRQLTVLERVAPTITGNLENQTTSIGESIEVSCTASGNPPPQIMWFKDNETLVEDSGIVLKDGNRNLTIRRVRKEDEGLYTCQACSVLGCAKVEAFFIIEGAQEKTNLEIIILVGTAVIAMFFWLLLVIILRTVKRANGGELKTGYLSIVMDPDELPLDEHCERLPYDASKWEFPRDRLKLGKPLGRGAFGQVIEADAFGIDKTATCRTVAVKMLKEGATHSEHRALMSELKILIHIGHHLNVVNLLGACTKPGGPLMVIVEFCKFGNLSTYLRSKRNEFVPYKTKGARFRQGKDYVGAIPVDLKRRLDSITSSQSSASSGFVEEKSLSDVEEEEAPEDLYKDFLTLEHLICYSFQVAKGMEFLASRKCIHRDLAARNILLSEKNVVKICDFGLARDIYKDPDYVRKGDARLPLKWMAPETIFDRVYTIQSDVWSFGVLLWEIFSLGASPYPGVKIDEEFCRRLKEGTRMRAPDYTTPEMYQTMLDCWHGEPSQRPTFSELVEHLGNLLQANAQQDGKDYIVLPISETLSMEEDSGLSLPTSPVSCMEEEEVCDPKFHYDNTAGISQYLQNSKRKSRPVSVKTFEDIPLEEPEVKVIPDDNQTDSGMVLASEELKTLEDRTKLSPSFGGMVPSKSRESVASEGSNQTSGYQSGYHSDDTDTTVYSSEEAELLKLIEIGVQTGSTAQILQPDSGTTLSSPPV
Experimental: KDR (VEGFR2) Phosphorylation in PAE-KDR Cells Assay
This assay determines the ability of a test compound to inhibit the autophosphorylation of KDR in porcine aorta endothelial (PAE)-KDR cells. PAE cells that overexpress human KDR were used in this assay. The cells were cultured in Ham's F12 media supplemented with 10% fetal bovine serum (FBS) and 400 ug/mL G418. Thirty thousands cells were seeded into each well of a 96-well plate in 75 μL of growth media and allowed to attach for 6 hours at 37° C. Cells were then exposed to the starvation media (Ham's F12 media supplemented with 0.1% FBS) for 16 hours. After the starvation period was over, 10 μL of test agent in 5% DMSO in starvation media were added to the test wells and 10 μL of the vehicle (5% DMSO in starvation media) were added into the control wells. The final DMSO concentration in each well was 0.5%. Plates were incubated at 37° C. for 1 hour and the cells were then stimulated with 500 ng/ml VEGF (commercially available from R & D System) in the presence of 2 mM Na3VO4 for 8 minutes. The cells were washed once with 1 mm Na3VO4 in HBSS and lysed by adding 50 μL per well of lysis buffer. One hundred μL of dilution buffer were then added to each well and the diluted cell lysate was transferred to a 96-well goat ant-rabbit coated plate (commercially available from Pierce) which was pre-coated with Rabbit anti Human Anti-flk-1 C-20 antibody (commercially available from Santa Cruz). The plates were incubated at room temperature for 2 hours and washed seven times with 1% Tween 20 in PBS. HRP-PY20 (commercially available from Santa Cruz) was diluted and added to the plate for a 30-minute incubation. Plates were then washed again and TMB peroxidase substrate (commercially available from Kirkegaard & Perry) was added for a 10-minute incubation. One hundred μL of 0.09 N H2SO4 was added to each well of the 96-well plates to stop the reaction. Phosphorylation status was assessed by spectrophotometer reading at 450 nm. IC50 values were calculated by curve fitting using a four-parameter analysis.

[2] = target: T2, unphosphorylated VEGF-R2Δ50 (FLVK) (Homo sapiens, UniProt P35968, DEL940-989/E990V); assay: VEGF-R2 coupled spectrophotometric assay, unphosphorylated VEGF-R2Δ50 (FLVK); assay type: biochemical; conditions: for inhibition at 0.05 µM: 50 nM compound, read-out: FLVK (% inh @ 50 nM); for inhibition at 0.05 µM / Ki: unphosphorylated VEGF-R2Δ50; for inhibition at 0.1 µM: read-out: FLVK (% @ 100 nM)
T2 construct: VEGF-R2Δ50 contains residues 806–939 and 990–1171; made in house; host or cells: baculovirus/insect cell system
T2 sequence (P35968 with tags, fused parts or gaps DEL940-989/E990V limits assumed): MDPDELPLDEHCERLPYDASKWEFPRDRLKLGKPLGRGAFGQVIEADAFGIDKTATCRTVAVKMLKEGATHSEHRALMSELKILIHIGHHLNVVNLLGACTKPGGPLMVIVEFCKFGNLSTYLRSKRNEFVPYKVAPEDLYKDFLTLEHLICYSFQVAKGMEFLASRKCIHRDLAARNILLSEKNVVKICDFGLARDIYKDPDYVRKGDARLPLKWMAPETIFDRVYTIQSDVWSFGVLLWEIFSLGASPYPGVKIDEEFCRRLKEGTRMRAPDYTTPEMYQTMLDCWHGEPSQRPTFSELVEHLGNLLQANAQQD
Procedure, shortened: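 Baculovirus-expressed human VEGF-R2Δ50 (kinase insert partly deleted, E990V), unphosphorylated form; ADP production coupled via PK/LDH to NADH oxidation, read at 340 nm. 20 mM poly(E4Y1), 3 mM ATP, 60 mM MgCl2, 2 mM MnCl2, 200 mM HEPES pH 7.5; 5–40 nM enzyme. Ki from Morrison tight-binding fit.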

Huvec = assay: bFGF Huvec proliferation; assay type: cell-based, human; conditions: Homo sapiens, HUVEC
PDGFRβ = target: T3, PDGFRβ (Homo sapiens, UniProt P09619); assay: PAE-PDGFRβ phosphorylation in PAE-PDGFRB cells assay; assay type: cell-based
T3 construct: expressed in transfected cells; host or cells: porcine aorta endothelial (PAE)-PDGFRβ cells
T3 sequence (P09619 33-1106): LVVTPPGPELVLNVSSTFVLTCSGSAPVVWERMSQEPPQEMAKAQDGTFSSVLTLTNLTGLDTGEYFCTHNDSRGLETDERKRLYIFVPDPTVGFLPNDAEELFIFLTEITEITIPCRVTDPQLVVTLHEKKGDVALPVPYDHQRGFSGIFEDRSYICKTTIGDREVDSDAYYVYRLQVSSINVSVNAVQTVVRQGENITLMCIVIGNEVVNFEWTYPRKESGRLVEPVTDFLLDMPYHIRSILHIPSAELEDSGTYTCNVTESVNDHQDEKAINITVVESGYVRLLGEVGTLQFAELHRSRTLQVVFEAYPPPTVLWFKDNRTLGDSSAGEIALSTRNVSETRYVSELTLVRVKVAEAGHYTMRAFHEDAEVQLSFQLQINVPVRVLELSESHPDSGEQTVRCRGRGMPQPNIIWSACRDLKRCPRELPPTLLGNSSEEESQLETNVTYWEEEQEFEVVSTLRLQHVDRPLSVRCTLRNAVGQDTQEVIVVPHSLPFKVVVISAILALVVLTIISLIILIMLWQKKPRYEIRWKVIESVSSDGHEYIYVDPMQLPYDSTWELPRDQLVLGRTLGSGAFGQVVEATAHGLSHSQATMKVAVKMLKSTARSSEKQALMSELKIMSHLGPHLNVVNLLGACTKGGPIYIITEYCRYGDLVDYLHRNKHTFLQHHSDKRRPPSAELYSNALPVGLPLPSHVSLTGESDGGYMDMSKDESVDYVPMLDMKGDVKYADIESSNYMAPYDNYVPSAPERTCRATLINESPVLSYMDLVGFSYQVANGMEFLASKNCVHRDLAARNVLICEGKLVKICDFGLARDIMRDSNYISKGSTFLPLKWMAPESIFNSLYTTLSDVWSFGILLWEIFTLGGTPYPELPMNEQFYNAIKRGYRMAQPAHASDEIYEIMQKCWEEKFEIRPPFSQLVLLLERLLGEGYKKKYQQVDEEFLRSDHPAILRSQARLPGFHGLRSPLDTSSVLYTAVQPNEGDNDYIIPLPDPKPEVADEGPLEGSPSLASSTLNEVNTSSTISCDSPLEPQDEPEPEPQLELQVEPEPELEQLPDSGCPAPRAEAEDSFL
Procedure, shortened: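 PAE cells overexpressing human PDGFRβ, serum-starved 16 h (0.1% FBS), were given compound for 1 h at 37 °C (0.5% DMSO) and then stimulated with 1 μg/mL PDGF-BB plus 2 mM Na3VO4 for 8 min. Receptor autophosphorylation was read by capture ELISA (HRP-PY20, TMB, 450 nm); IC50 from 4-parameter fit.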

FGF-R1 = target: T4, FGF-R1 (Homo sapiens, UniProt P11362, C488A/C584S/L457V); assay: FGF-R spectrophotometric assay; assay type: biochemical; conditions: percent inhibition at 100 nM; library amides from Example 101 (R101), crude mixtures in DMSO
T4 construct: starting from the endogenous methionine residue 456 to glutamate 766; made in house; host or cells: baculovirus vector expression system
T4 sequence (P11362 456-766 L457V/C488A/C584S): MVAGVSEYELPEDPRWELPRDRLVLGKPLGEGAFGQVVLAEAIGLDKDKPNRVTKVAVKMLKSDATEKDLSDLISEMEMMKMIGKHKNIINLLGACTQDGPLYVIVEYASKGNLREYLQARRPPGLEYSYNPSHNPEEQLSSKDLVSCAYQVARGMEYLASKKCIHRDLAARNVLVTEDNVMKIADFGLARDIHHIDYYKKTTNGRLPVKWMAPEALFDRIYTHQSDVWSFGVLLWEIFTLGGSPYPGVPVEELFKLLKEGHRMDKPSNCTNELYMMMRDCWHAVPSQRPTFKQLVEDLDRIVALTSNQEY
Experimental: FGF-R1 Construct for Assay:
The intracellular kinase domain of human FGF-R1 was expressed using the baculovirus vector expression system starting from the endogenous methionine residue 456 to glutamate 766, according to the residue numbering system of Mohammadi et al., Mol. Cell. Bio., 16, 977–989 (1996). In addition, the construct also has the following 3 amino acid substitutions: L457V, C488A, and C584S.
The spectrophotometric assay was carried out as described above for VEGF-R2, except for the following changes in concentration: FGF-R=50 nM, ATP=2 mM, and poly(E4Y1)=15 mM.

[3] = PAE cells overexpressing human PDGFRβ, PDGF-BB stimulated, read-out: PAE PDGFR autophos IC50 (nM) AVG
[4] = percent inhibition at 100 nM, library amides from Example 101 (R101), crude mixtures in DMSO
[5] = library amides from Example 101 (R101), crude mixtures in DMSO, read-out: PAE PDGFR autophos IC50

Row | IC50 (KDR (VEGFR2)) [nM] | inhibition at 0.05 µM [2] [%] | Ki [2] [nM] | melting point [°C] | IC50 (PDGFRβ; [3]) [nM] | inhibition at 0.1 µM [2, 4] [%] | inhibition at 0.1 µM (FGF-R1) [%] | IC50 (PDGFRβ; [5]) [nM] | Compound | IC50 [1] [nM] | IC50 (Huvec) [nM] | inhibition at 0.1 µM [2] [%]
1 | 1.95 | 95 | 1.04 | – | – | – | – | – | CNC(=O)c1c(C)sc2cc(Oc3ccnc4cc(C(=O)N5C[C@@H](O)[C@@H](O)C5)sc34)ccc12 [Example 7, 6-(2-[meso-3,4-dihydroxypyrrolidine-1-carbonyl]thieno[3,2-b]pyridin-7-yloxy)-2-methylbenzo[b]thiophene-3-carboxylic acid methylamide] | 1.21 | 2470 | –
2 | 87 | 63 | 9.8 | – | – | – | – | – | Cc1c(C(=O)NCC2CC2)c2ccc(Oc3ccnc4cc(-c5nc(C(C)(C)O)cs5)sc34)cc2n1C [Example 57, 6-{2-[4(1-Hydroxy-1-methyl-ethyl)-thiazol-2-yl]-thieno[3,2-b]pyridin-7-yloxy)-1,2-dimethyl-1H-indole-3-carboxylic acid cyclopropylmethyl-amide] | – | – | –
3 | – | 74 | 2.31 | 210 to 212 | 451 | – | – | – | CNC(=O)c1c(C)sc2cc(Oc3ccnc4cc(-c5ccnn5C)sc34)ccc12 [Example 10, 2-Methyl-6-(2-[2-methyl-2H-pyrazol-3-yl]thieno[3,2-b]pyridin-7-yloxy)benzo[b]thiophene-3-carboxylic acid methylamide] | 10 | 99 | –
4 | – | 83 | 1.57 | 237 to 239 | 313 | – | – | – | CNC(=O)c1c(C)sc2cc(Oc3ccnc4cc(C(=O)N5CC(O)C5)sc34)ccc12 [Example 9, 6-(2-[3-Hydroxyazetidine-1-carbonyl]thieno[3,2-b]pyridin-7-yloxy)-2-methylbenzo[b]thiophene-3-carboxylic acid methylamide] | 13 | 135 | –
5 | – | – | – | – | – | 100 | 4 | 46 | Cc1cc(NC(=O)c2c(C)oc3cc(Oc4ccnc5ccsc45)ccc23)n[nH]1 [drawing 331] | – | – | –
6 | – | – | – | – | – | 97 | 0 | > 100 | Cc1oc2cc(Oc3ccnc4ccsc34)ccc2c1C(=O)NCCc1cccc(C(F)(F)F)c1 | – | – | –
7 | – | – | – | – | – | 100 | 56 | > 100 | Cc1oc2cc(Oc3ccnc4ccsc34)ccc2c1C(=O)Nc1cc(C(C)(C)C)[nH]n1 | – | – | –

Row | Compound | IC50 (KDR (VEGFR2)) [nM] | inhibition at 0.05 µM [2] [%] | Ki [2] [nM] | melting point [°C] | IC50 (PDGFRβ; [3]) [nM] | inhibition at 0.1 µM [2, 4] [%] | inhibition at 0.1 µM (FGF-R1) [%] | IC50 (PDGFRβ; [5]) [nM] | IC50 [1] [nM] | IC50 (Huvec) [nM] | inhibition at 0.1 µM [2] [%]
8 | Cc1cc(C)c(O)c(NC(=O)c2c(C)oc3cc(Oc4ccnc5ccsc45)ccc23)c1 | – | – | – | – | – | – | 13 | ~100 | – | – | 87
